Laboratory results from patent US9302999B2, “Substituted triazoles as herbicides” (E. I. DU PONT DE NEMOURS AND COMPANY, priority 2012, dated 2016).

How the values were obtained:
Type in all cases: in vivo
[1] = tested on: morningglory (Ipomoea coccinea); experiment: Test F pre-/postemergence: morningglory; details: Preemergence
Source text: (§1) Seeds of plant species selected from corn (Zea mays), soybean (Glycine max), velvetleaf (Abutilon theophrasti), lambsquarters (Chenopodium album), poinsettia, wild (wild poinsettia, Euphorbia heterophylla), pigweed, palmer (palmer pigweed, Amaranthus palmeri), waterhemp (common waterhemp, Amaranthus rudis), surinam grass (Brachiaria decumbens), crabgrass, Brazil (Brazilian crabgrass, Digitaria horizontalis), panicum, fall (fall panicum Panicum dichotomiflorum), crabgrass, large (large crabgrass, Digitaria sanguinalis), foxtail, giant (giant foxtail, Setaria faberii), foxtail, green (green foxtail Setaria viridis), goosegrass (Eleusine indica), ragweed (common ragweed, Ambrosia elatior), barnyardgrass (Echinochloa crus-galli), sandbur (southern sandbur, Cenchrus echinatus), arrowleaf sida (Sida rhombifolia), ryegrass, Italian (Italian ryegrass, Lolium multiflorum), dayflower, VA (Virginia (VA) dayflower, Commelina virginica), field bindweed (Convolvulus arvensis), cocklebur (common cocklebur, Xanthium strumarium), morningglory (Ipomoea coccinea), nightshade (eastern black nightshade, Solanum ptycanthum), kochia (Kochia scoparia), nutsedge, yellow (yellow nutsedge, Cyperus esculentus), johnsongrass (Sorghum halepense), smartweed (ladysthumb smartweed, Polygonum persicaria), and beggarticks (hairy beggarticks, Bidens pilosa), were planted into a silt loam soil and treated preemergence with test chemicals formulated in a non-phytotoxic solvent mixture which included a surfactant. At the same time, plants selected from these crop and weed species and also pigweed (Amaranthus retroflexus), waterhemp_RES1 (ALS/Triazine resistant common waterhemp, Amaranthus rudis) and waterhemp_RES2 (ALS/HPPD resistant common waterhemp, Amaranthus rudis) were planted in pots containing a planting medium comprising spaghnum peat moss, vermiculite, wetting agent and starter nutrients treated with postemergence applications of some of the test chemicals formulated in the same manner. Plants ranged in height from 2 to 18 cm for postemergence treatments (1- to 4-leaf stage).
(§2) Treated plants and controls were maintained in a greenhouse for 14 to 21 days, after which time all species were compared to controls and visually evaluated. Plant response ratings, summarized in Table E, are based on a scale of 0 to 100 where 0 is no effect and 100 is complete control. A dash (-) response means no test result.

[2] = tested on: kochia (Kochia scoparia); experiment: Test F pre-/postemergence: kochia; details: Preemergence
Source text: as §1, §2

[3] = tested on: cocklebur (common cocklebur, Xanthium strumarium); experiment: Test F pre-/postemergence: cocklebur; details: Preemergence
Source text: as §1, §2

[4] = tested on: crabgrass, Brazil (Brazilian crabgrass, Digitaria horizontalis); experiment: Test F pre-/postemergence: crabgrass, Brazil; details: Preemergence
Source text: as §1, §2

[5] = tested on: wheat, winter (winter wheat, Triticum aestivum); experiment: Test D pre-/postemergence: wheat, winter
Source text: (§3) Seeds of plant species selected from bluegrass (annual bluegrass, Poa annua), blackgrass (Alopecurus myosuroides), canarygrass (Phalaris minor), chickweed (common chickweed, Stellaria media), galium (catchweed bedstraw, Galium aparine), bromegrass, downy (downy bromegrass, Bromus tectorum), field poppy (Papaver rhoeas), field violet (Viola arvensis), foxtail, green (green foxtail, Setaria viridis), deadnettle (henbit deadnettle, Lamium amplexicaule), ryegrass, Italian (Italian ryegrass, Lolium multiflorum), kochia (Kochia scoparia), lambsquarters (Chenopodium album), oilseed rape (Brassica napus), pigweed (Amaranthus retroflexus), Russian thistle (Salsola iberica), chamomile (scentless chamomile, Matricaria inodora), speedwell (bird's-eye speedwell, Veronica persica), barley, spring (spring barley, Hordeum vulgare), wheat, spring (spring wheat, Triticum aestivum), buckwheat, wild (wild buckwheat, Polygonum convolvulus), mustard, wild (wild mustard, Sinapis arvensis), oat, wild (wild oat, Avena fatua), radish, wild (wild radish, Raphanus raphanistrum), windgrass (Apera spica-venti), barley, winter (winter barley, Hordeum vulgare), and wheat, winter (winter wheat, Triticum aestivum) were planted into a silt loam soil and treated preemergence with test chemicals formulated in a non-phytotoxic solvent mixture which included a surfactant. At the same time, these same crop and weed species were planted in pots containing the planting medium comprising spaghnum peat moss, vermiculite, wetting agent and starter nutrients and treated with postemergence applications of the test chemicals formulated in the same manner. Plants ranged in height from 2 to 18 cm (1- to 4-leaf stage).
as §2, with “controlled growth environment” for “greenhouse”, “days” for “days,”, “D,” for “E,”

[6] = tested on: oilseed rape (Brassica napus); experiment: Test D pre-/postemergence: oilseed rape
Source text: as §3
as §2, with “controlled growth environment” for “greenhouse”, “days” for “days,”, “D,” for “E,”

[7] = tested on: mustard, wild (wild mustard, Sinapis arvensis); experiment: Test D pre-/postemergence: mustard, wild
Source text: as §3
as §2, with “controlled growth environment” for “greenhouse”, “days” for “days,”, “D,” for “E,”

[8] = tested on: foxtail, green (green foxtail, Setaria viridis); experiment: Test D pre-/postemergence: foxtail, green
How it was run: (§4)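 Visual control ratings (0–100) after 14–21 days, controlled environment. Preemergence on silt loam; postemergence on 2–18 cm plants.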

[9] = tested on: oat, wild (wild oat, Avena fatua); experiment: Test D pre-/postemergence: oat, wild
How it was run: as §4

[10] = 16 g ai/ha, scale 0 to 100, 0 no effect, 100 complete control
[11] = 31 g ai/ha, scale 0 to 100, 0 no effect, 100 complete control
[12] = Postemergence, 31 g ai/ha, scale 0 to 100 (0 no effect, 100 complete control)
[13] = Postemergence, 62 g ai/ha, scale 0 to 100 (0 no effect, 100 complete control)
[14] = Postemergence, 125 g ai/ha, scale 0 to 100, 0 no effect, 100 complete control
[15] = Postemergence, 16 g ai/ha, scale 0 to 100
[16] = Preemergence, 16 g ai/ha, scale 0 to 100, 0 no effect, 100 complete control
[17] = Preemergence, 31 g ai/ha, scale 0 to 100, 0 no effect, 100 complete control
[18] = Preemergence, 62 g ai/ha, scale 0 to 100
[19] = Preemergence, 125 g ai/ha, scale 0 to 100

Cc1nn(-c2ccc(F)cc2F)nc1Oc1ccnc(C(F)(F)F)c1 [Compound 146]
Plant response rating, Morningglory [1, 10]: 0
Plant response rating, Morningglory [1, 11]: 0
Plant response rating, Morningglory ([1]; 125 g ai/ha, scale 0 to 100): 0
Plant response rating, Morningglory ([1]; 250 g ai/ha, scale 0 to 100): 25
Plant response rating, Kochia [2, 10]: 0
Plant response rating, Kochia [2, 11]: 5
Plant response rating, Kochia ([2]; 62 g ai/ha, scale 0 to 100): 30
Plant response rating, Kochia ([2]; 125 g ai/ha, scale 0 to 100): 50
Plant response rating, Kochia ([2]; 250 g ai/ha, scale 0 to 100): 98

CCc1nn(-c2ccc(F)cc2)nc1Cc1ccnc(C(F)(F)F)c1 [Compound 154]
Plant response rating, Cocklebur [3, 10]: 0
Plant response rating, Cocklebur ([3]; 62 g ai/ha, scale 0 to 100): 0
Plant response rating, Cocklebur ([3]; 250 g ai/ha, scale 0 to 100): 0
Plant response rating, Crabgrass, Brazil [4, 10]: 75
Plant response rating, Crabgrass, Brazil [4, 11]: 100
Plant response rating, Crabgrass, Brazil ([4]; 62 g ai/ha, scale 0 to 100): 100
Plant response rating, Crabgrass, Brazil ([4]; 125 g ai/ha, scale 0 to 100): 100
Plant response rating, Crabgrass, Brazil ([4]; 250 g ai/ha, scale 0 to 100): 100
Plant response rating, Kochia [2, 10]: 5
Plant response rating, Kochia [2, 11]: 25
Plant response rating, Kochia ([2]; 62 g ai/ha, scale 0 to 100): 85
Plant response rating, Kochia ([2]; 125 g ai/ha, scale 0 to 100): 95
Plant response rating, Kochia ([2]; 250 g ai/ha, scale 0 to 100): 98

Cc1nn(-c2ccc(F)c(C(F)(F)F)c2)nc1Cc1ccnc(C(F)(F)F)c1 [Compound 156]
Plant response rating: Wheat, Winter [5, 12]: 15
Plant response rating: Wheat, Winter [5, 13]: 15
Plant response rating: Wheat, Winter [5, 14]: 20
Plant response rating, Wheat, Winter [5, 15]: 10
Plant response rating, Wheat, Winter [5, 16]: 0
Plant response rating, Wheat, Winter [5, 17]: 0
Plant response rating, Wheat, Winter [5, 18]: 0
Plant response rating, Wheat, Winter [5, 19]: 5
Plant response rating: Oilseed Rape [6, 12]: 100
Plant response rating: Oilseed Rape [6, 13]: 100
Plant response rating: Oilseed Rape [6, 14]: 100
Plant response rating, Oilseed Rape [6, 15]: 100
Plant response rating, Oilseed Rape [6, 16]: 0
Plant response rating, Oilseed Rape [6, 17]: 0
Plant response rating, Oilseed Rape [6, 18]: 85
Plant response rating, Oilseed Rape [6, 19]: 100
Plant response rating: Mustard, Wild [7, 12]: 95
Plant response rating: Mustard, Wild [7, 13]: 100
Plant response rating: Mustard, Wild [7, 14]: 100
Plant response rating, Mustard, Wild [7, 15]: 100
Plant response rating, Mustard, Wild [7, 16]: 10
Plant response rating, Mustard, Wild [7, 17]: 85
Plant response rating, Mustard, Wild [7, 18]: 95
Plant response rating, Mustard, Wild [7, 19]: 100
Plant response rating: Foxtail, Green [8, 12]: 25
Plant response rating: Foxtail, Green [8, 13]: 25
Plant response rating: Foxtail, Green [8, 14]: 65
Plant response rating, Foxtail, Green [8, 15]: 10
Plant response rating, Foxtail, Green [8, 16]: 5
Plant response rating, Foxtail, Green [8, 17]: 10
Plant response rating, Foxtail, Green [8, 18]: 30
Plant response rating, Foxtail, Green [8, 19]: 100
Plant response rating: Oat, Wild [9, 12]: 15
Plant response rating: Oat, Wild [9, 13]: 20
Plant response rating: Oat, Wild [9, 14]: 65
Plant response rating, Oat, Wild [9, 15]: 10
Plant response rating, Oat, Wild [9, 16]: 5
Plant response rating, Oat, Wild [9, 17]: 10
Plant response rating, Oat, Wild [9, 18]: 25
Plant response rating, Oat, Wild [9, 19]: 90
